Target: T1, BhTnaA (Blastocystis ST7-B tryptophanase) (Blastocystis hominis, UniProt D8M5A5)
T1 construct: gene GSBLH_T00003147001; pGEX-6P-1, N-terminal GST tag cut with PreScission protease; E. coli BL21
T1 sequence (D8M5A5 1-544): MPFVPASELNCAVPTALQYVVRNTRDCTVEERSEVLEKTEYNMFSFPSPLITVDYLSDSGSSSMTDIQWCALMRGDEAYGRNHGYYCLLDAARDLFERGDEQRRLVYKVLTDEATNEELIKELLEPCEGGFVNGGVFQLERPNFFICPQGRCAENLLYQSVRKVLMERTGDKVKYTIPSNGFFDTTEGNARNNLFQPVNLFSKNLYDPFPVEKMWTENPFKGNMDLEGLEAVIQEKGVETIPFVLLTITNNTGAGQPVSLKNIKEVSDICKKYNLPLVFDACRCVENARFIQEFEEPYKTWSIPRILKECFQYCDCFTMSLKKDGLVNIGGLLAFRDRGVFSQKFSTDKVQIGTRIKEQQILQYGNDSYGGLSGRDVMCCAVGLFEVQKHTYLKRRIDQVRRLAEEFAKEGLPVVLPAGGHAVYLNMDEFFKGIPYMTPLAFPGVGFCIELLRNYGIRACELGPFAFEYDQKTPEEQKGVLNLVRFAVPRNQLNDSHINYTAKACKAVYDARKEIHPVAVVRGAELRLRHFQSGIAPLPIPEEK
Experiment: indole formation, Ehrlich's reagent, […] nm, Hanes-Woolf plot
Format: biochemical
Details: forward reaction (tryptophan to indole); PLP 0.165 mM; pH 7.5; 37 °C; toluene-layered; exact value only in Fig 4D

N[C@@H](Cc1c[nH]c2ccccc12)C(=O)O [L-tryptophan]
Km: > 3 mM

Source: article PMC8448343, “Characterisation of novel functionality within the Blastocystis tryptophanase gene” (PLoS Neglected Tropical Diseases, 2021)
